Results on 4 molecules are retold here after US12325736B2, “Transduced T cells expressing human SSTR2 and application thereof” (Cornell University, priority 2016, dated 2025).

One data set concerns the target SSTR2 (Homo sapiens, UniProt P30874). As to the kind of experiment: Octreotide-induced SSTR2 internalization in SSTR2-transduced Jurkat T cells by flow cytometry. Format: cell-based. As to conditions: 1 μM octreotide, 30 min, 37° C. As for the experimental part: SSTR2-transduced Jurkat T cells were incubated with or without octreotide, 1 μM (Sigma) for 30 min at 37° C. Subsequent internalization of SSTR2 was measured by flow cytometry analysis of SSTR2 expression. […] Values obtained were used for Scatchard analysis to estimate affinity and site density.

Data set [1] can be described thus: PET/CT DOTATOC uptake in lungs, 8505C mouse model and controls. Format: in vivo, NSG mice. To be noted: NSG. As for the experimental part: 1×10^6 8505c-FLuc^+GFP^+cells were injected into NSG mice via tail vein. 2-3×10^6 primary human T cells were injected via tail vein 7-15 days after tumor cell injection. Luminescence imaging of tumor xenografts in live mice was performed using a whole body optical imager (In-Vivo Extreme 4MP, Bruker). Mice were first anesthetized with 3% isoflurane at 2 L/min O2 and subsequent to this, maintained at 2% isoflurane at 2 L/min O2. Growth or reduction in tumor burden was estimated by integration of luminescence over the lungs or the entire mouse body. Ex-vivo fluorescence imaging of mouse liver, lungs, spleen and resected tumors were performed using a whole body optical imager (In-Vivo F Pro, Bruker).
(§1) Projection data was acquired in a cone-beam geometry with approximately […] steps at 1 degree angular increments. At least 10 million coincidence events were acquired for PET per study using a 250 to 750 keV energy window and a 6 ns timing window. […] To compute DOTATOC uptake by Jurkat tumors, the ellipsoidal ROIs (Amide) were placed to enclose subcutaneous tumors that closely match overall tumor size and shape. For systemic 8505C tumor models, ellipsoids were drawn separately on the left and right sides of lungs to enclose much of five lobes of mouse lungs. The % ID/cm^3 values, computed relative to the counts in a reference tube, can be approximated to a standard uptake value (SUV^61) by dividing % ID/cm^3 by four, assuming injection efficiency of 100% and 25 g of body weight. Visualization and analyses of PET/CT images were performed using Amide (amide.sourceforge.net).

Data set [2] is described as follows: PET/CT DOTATOC uptake by subcutaneous Jurkat T cell xenografts (0-100% SSTR2+). Format: in vivo, NSG mice. To be noted: NSG (NOD/LtSz Prkdc^scid Il2rg^tm1Wjl/J), mouse, subcutaneous Jurkat tumor xenograft. As for the experimental part: All animal experiments were performed in strict accordance with the recommendations in the Guide for the Care and Use of Laboratory Animals of the National Institutes of Health. This study's animal protocol was approved by the Institutional Laboratory Animal Use and Care Committee of Weill Cornell Medicine. SSTR2 expressing Jurkats were spiked with increasing numbers of non-transduced Jurkats to derive distinct cultures containing defined percentages of SSTR2 expression ranging from 100-0%. For each subcutaneous xenograft, 5×10^6 total cells were resuspended in 100 μl Matrigel Basement Membrane Matrix (Corning) and injected bilaterally into nonobese diabetic (NOD)/LtSz Prkdc^scid I12rg^tm1Wj1/J (NSG) mice (Jackson Laboratory). Measurements of tumor size were made using an external digital caliper. Tumor volume was calculated by using the modified ellipsoid formula 1/2(Length×Width^2). Length was measured as the longer dimension. Each dimensional measurement was rounded to the nearest 0.5 cm.
as §1

Another data set concerns the target ICAM-1 (Homo sapiens, UniProt P05362). Briefly: SPR measurement of LFA-1 I domain affinity to ICAM-1. Format: binding.

Changes are numbered by the printed parent chain. Numbers in names are those of the source.

ICAM-1, sequence (P05362 28-532): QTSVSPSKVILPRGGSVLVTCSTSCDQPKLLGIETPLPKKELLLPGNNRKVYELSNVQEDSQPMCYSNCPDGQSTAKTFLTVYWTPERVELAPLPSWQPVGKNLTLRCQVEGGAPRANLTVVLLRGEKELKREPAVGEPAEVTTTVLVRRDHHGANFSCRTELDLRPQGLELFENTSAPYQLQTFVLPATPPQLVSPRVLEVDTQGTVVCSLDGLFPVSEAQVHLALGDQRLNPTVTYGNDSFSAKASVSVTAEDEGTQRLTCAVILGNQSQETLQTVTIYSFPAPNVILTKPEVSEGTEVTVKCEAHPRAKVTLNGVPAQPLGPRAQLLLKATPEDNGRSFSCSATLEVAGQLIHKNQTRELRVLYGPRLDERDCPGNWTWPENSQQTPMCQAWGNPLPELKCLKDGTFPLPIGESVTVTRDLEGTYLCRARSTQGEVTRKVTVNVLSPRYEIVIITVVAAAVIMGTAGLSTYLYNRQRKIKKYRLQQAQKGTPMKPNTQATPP
SSTR2, sequence (P30874 whole entry): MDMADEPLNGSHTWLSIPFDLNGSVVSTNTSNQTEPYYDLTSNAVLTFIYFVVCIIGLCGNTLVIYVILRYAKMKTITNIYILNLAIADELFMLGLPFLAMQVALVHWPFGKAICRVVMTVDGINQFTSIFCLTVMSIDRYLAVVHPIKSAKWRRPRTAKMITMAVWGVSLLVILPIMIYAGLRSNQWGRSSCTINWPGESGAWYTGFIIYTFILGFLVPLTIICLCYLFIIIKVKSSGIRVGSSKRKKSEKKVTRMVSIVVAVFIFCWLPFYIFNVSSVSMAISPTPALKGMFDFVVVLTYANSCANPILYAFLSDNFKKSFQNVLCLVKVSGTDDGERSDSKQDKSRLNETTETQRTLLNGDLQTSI
From the text for ICAM-1: Affinity is first measured by surface plasmon resonance (e.g., Biacore) to assess 1.1 binding affinity between I domain and ICAM-1.

Consider `C[C@@H](O)[C@@H]1NC(=O)[C@H](CCCCN)NC(=O)[C@@H](Cc2c[nH]c3ccccc23)NC(=O)[C@H](Cc2ccccc2)NC(=O)[C@@H](NC(=O)[C@H](N)Cc2ccccc2)CSSC[C@@H](C(=O)N[C@H](CO)[C@@H](C)O)NC1=O` [octreotide], for which the “surface expression of SSTR2 (antibody binding)” value at SSTR2 was “reduced surface expression of SSTR2”.
On to `C[C@@H](O)[C@@H]1NC(=O)[C@H](CCCCN)NC(=O)[C@@H](Cc2c[nH]c3ccccc23)NC(=O)[C@H](Cc2ccc(O)cc2)NC(=O)[C@@H](NC(=O)[C@@H](Cc2ccccc2)NC(=O)CN2CCN(CC(=O)O)CCN(CC(=O)O)CCN(CC(=O)O)CC2)CSSC[C@@H](C(=O)N[C@H](CO)[C@@H](C)O)NC1=O` [DOTATOC, 1,4,7,10-tetraazacyclododecane-N^I,N^II,N^III,N^IIII-tetraacetic acid (D)-Phe^1-Tyr^3-octreotide], for which the tissue uptake per volume in data set [1] (lungs, DOTATOC uptake in the lungs, mice treated with RR T cells) was 1 %ID/mL; in data set [1] (lungs, DOTATOC uptake, mice with no tumors infused with SS T cells), 0.7 %ID/mL; in data set [1] (thoracic cavity, non-specific DOTATOC uptake in the thoracic cavity, high tumor burden, 23-27 days post-tumor xenograft, no T cells or SS T cells), 1.3 ± 0.5 %ID/mL; in data set [2] (Jurkat tumors containing 0% SSTR2+ cells), 0.6 to 0.8 %ID/mL; in data set [2] (tumors below 65 mm^3, 0% SSTR2+), 0.44 ± 0.2 %ID/mL; in data set [2] (tumors below 65 mm^3, 1% SSTR2+), 0.64 ± 0.4 %ID/mL. In addition, the tissue uptake per volume was 0.83 ± 0.5 %ID/mL in data set [2] (tumors below 65 mm^3, 10% SSTR2+); 3.4 ± 1.7 %ID/mL in data set [2] (tumors below 65 mm^3, 100% SSTR2+); 0.8 ± 0.35 %ID/mL in data set [2] (tumors larger than 65 mm^3, 0% SSTR2+); 1.1 ± 0.51 %ID/mL in data set [2] (tumors larger than 65 mm^3, 0.1% SSTR2+); 2 ± 0.77 %ID/mL in data set [2] (tumors larger than 65 mm^3, 1% SSTR2+); 2.8 ± 1.1 %ID/mL in data set [2] (tumors larger than 65 mm^3, 10% SSTR2+). In data set [2] (tumors larger than 65 mm^3, 100% SSTR2+), this molecule had a tissue uptake per volume of 7.1 ± 2.3 %ID/mL.

B1: F292G: LFA-1 I domain mutant F292G, G128-G311 of SEQ ID NO: 1 (protein, listed as Homo sapiens)
chain: GNVDLVFLFDGSMSLQPDEFQKILDFMKDVMKKLSNTSYQFAAVQFSTSYKTEFDFSDYVKWKDPDALLKHVKHMLLLTNTFGAINYVATEVFREELGARPDATKVLIIITDGEATDSGNIDAAKDIIRYIIGIGKHFQTKESQETLHKFASKPASEFVKILDTGEKLKDLFTELQKKIYVIEG
Turning to B1, the Kd in the data set with ICAM-1 (SPR measurements, I domain to ICAM-1) was 100 nM.

B2: F265S/F292G (DM): LFA-1 I domain double mutant F265S/F292G, G128-G311 of SEQ ID NO: 1 (protein, listed as Homo sapiens)
chain: B1 chain with F138S
As for B2, the “affinity higher than the wild-type (WT) I domain” value in the data set with ICAM-1 (vs WT KD=1.5 mM) was “approximately 200,000 fold”.
